According to ChEMBL document CHEMBL6127027, “Conserved gatekeeper methionine regulates the binding and access of kinase inhibitors to ATP sites of MAP2K1, 4, and 7: Clues for developing selective inhibitors” (Bioorg Med Chem Lett, 2024):
Activity calls are given as the source filed them. The calls are words filed in the database; no cut-off is given here.

How the values were obtained:
[1] = biological target: Dual specificity mitogen-activated protein kinase kinase 1 (Homo sapiens, UniProt Q02750); assay: Inhibition of MAP2K1 (unknown origin)
Sequence of Dual specificity mitogen-activated protein kinase kinase 1 (Q02750 whole entry): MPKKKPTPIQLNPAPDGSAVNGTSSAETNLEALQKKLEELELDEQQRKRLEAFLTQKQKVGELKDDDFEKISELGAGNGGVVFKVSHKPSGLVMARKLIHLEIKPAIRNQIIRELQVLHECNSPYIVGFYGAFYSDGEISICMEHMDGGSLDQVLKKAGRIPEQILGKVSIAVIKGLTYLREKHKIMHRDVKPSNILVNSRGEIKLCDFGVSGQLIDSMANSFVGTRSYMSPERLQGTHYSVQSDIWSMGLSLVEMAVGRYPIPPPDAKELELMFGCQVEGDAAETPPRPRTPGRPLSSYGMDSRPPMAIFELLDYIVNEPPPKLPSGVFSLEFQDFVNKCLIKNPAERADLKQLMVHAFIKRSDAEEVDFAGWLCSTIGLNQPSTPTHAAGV

[2] = biological target: T1, Dual specificity mitogen-activated protein kinase kinase 4 (Homo sapiens) (UniProt P45985); assay: Inhibition of MAP2K4 (unknown origin) at 100 uM
T1 sequence (whole entry): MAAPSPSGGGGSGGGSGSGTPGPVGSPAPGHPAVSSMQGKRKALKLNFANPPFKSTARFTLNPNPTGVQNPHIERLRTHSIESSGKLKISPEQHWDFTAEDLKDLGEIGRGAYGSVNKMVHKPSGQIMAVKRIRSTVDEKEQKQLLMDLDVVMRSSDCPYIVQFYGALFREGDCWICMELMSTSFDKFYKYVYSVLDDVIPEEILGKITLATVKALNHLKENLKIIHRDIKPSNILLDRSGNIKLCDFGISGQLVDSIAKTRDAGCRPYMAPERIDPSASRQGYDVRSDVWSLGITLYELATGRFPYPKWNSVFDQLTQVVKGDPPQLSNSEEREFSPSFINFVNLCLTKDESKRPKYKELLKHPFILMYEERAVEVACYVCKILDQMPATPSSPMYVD

[3] = biological target: T2, Dual specificity mitogen-activated protein kinase kinase 7 (Homo sapiens) (UniProt O14733); assay: Inhibition of MAP2K7 (unknown origin) at 100 uM relative to control
T2 sequence (whole entry): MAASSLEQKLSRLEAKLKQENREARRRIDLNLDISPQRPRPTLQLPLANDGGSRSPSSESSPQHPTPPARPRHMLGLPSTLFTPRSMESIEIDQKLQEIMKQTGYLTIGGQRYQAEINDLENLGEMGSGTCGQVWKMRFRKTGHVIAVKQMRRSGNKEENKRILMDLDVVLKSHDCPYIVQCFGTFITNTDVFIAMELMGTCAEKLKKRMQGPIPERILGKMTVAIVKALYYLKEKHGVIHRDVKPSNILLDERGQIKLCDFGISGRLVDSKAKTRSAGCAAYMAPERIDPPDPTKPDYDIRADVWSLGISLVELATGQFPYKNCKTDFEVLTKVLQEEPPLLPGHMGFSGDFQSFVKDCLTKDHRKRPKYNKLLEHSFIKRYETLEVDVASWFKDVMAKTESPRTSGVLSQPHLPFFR

[4] = biological target: T3, Dual specificity mitogen-activated protein kinase kinase 4 (Homo sapiens, UniProt P45985); assay: Inhibition of MAP2K4 (unknown origin)
T3 sequence (P45985 whole entry): T1 sequence (whole entry)

| Structure (SMILES) | IC50 [1] | inhibition [2] | inhibition [3] | IC50 [4] |
| --- | --- | --- | --- | --- |
| COc1cc(O)c2c(c1)/C=C/C[C@H](O)[C@H](O)C(=O)CCC[C@H](C)OC2=O | 5.2 µM | inactive | 25% | – |
| COc1cc(O)c2c(c1)/C=C/C[C@H](O)[C@H](O)C(=O)/C=C\C[C@H](C)OC2=O | – | – | – | 4.7 µM |
